Literature values as cited in US20150258085A1, “Treating Tumors of the Central Nervous System” (THE REGENTS OF THE UNIVERSITY OF CALIFORNIA, priority 2012, published 2015).

Test system: newly diagnosed glioblastoma
Details: systemic irinotecan plus TMZ versus TMZ alone

CCc1c2c(nc3ccc(OC(=O)N4CCC(N5CCCCC5)CC4)cc13)-c1cc3c(c(=O)n1C2)COC(=O)[C@]3(O)CC [irinotecan]
clinical outcome: comparable to TMZ alone | toxicity / tolerability: more toxic and poorly tolerated
